Laboratory results: ChEMBL document CHEMBL1136506, “Solid-phase synthesis of cyclic RGD-furanoid sugar amino acid peptides as integrin inhibitors” (Bioorg Med Chem Lett, 2003)
Numbered stars: 1 amine (or outer) side, 2 acyl side, 3 side chain; on linkers, the order of the positions; unused ones are H or OH. Square brackets hold non-standard residues; d marks the D form. Peptide text beside a SMILES is read from it. X1 = O=C(C[C@@H]1O[C@H](CN[*:1])[C@@H](O)[C@H]1O)[*:2]

What was measured:
Integrin alpha-V/beta-3 [1] = molecular target: T1, Integrin alpha-V/beta-3 (Homo sapiens, UniProt P05106+P06756); experiment: Displacement of [125I]-echistatin from alphaV-beta3 integrin of human skin fibroblasts at 1 mM (Inactive); format: protein-complex assay
[2] = molecular target: T2, Integrin alpha-IIb/beta-3 (Homo sapiens, UniProt P05106+P08514); experiment: Displacement of [125I]echistatin from alphaIIb-beta3 integrin of human platelets at 1 mM (Inactive)
[3] = molecular target: T2, Integrin alpha-IIb/beta-3; experiment: Displacement of [125I]echistatin from alphaIIb-beta3 integrin of human platelets
Integrin alpha-V/beta-3 [4] = molecular target: T1, Integrin alpha-V/beta-3; experiment: Displacement of [125I]echistatin from alphaV-beta3 integrin of human skin fibroblasts; format: protein-complex assay

T2 sequence (P05106 27-788 limits assumed): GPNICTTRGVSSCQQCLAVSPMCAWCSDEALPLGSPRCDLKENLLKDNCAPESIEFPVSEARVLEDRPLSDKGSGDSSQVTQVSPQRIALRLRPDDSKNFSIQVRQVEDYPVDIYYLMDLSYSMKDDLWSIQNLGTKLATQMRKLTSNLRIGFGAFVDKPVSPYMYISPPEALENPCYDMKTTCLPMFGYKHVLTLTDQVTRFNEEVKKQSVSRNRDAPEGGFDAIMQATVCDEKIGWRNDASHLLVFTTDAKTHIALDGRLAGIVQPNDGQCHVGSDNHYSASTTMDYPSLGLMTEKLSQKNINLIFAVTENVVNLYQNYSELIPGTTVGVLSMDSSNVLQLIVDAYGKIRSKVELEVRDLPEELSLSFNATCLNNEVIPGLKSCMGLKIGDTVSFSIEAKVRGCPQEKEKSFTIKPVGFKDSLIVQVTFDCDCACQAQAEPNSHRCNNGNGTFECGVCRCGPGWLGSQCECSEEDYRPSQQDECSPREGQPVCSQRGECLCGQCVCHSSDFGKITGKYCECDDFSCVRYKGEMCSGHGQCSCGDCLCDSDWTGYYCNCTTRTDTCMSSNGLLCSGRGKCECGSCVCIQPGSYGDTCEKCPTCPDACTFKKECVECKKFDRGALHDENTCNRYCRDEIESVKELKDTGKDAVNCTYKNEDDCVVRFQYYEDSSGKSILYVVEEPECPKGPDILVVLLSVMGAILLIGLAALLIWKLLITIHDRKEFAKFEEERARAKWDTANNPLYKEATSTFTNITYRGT
T2 sequence (P08514 32-887 limits assumed): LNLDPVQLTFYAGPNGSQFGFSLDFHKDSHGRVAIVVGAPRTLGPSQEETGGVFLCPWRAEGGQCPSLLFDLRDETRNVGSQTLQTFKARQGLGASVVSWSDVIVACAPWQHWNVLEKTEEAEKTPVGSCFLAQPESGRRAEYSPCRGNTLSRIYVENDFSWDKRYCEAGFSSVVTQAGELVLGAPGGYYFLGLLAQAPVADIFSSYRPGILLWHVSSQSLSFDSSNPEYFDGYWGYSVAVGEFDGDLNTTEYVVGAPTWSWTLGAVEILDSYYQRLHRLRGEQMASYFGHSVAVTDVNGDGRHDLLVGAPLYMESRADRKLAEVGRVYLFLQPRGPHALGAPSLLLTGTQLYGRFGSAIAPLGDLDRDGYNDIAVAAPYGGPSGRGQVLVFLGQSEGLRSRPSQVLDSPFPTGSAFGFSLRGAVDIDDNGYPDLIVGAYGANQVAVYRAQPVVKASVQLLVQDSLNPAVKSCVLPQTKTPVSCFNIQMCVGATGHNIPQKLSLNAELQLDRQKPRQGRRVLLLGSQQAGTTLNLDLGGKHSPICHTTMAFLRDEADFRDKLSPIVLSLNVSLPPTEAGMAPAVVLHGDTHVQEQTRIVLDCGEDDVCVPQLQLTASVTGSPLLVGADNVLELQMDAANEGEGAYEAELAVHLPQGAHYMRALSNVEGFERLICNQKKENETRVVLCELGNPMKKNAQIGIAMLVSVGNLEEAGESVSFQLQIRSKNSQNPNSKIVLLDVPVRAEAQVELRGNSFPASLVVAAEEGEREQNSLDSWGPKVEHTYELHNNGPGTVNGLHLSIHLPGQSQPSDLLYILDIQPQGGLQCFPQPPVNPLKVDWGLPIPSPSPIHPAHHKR
T2 sequence (P08514 891-1039 limits assumed): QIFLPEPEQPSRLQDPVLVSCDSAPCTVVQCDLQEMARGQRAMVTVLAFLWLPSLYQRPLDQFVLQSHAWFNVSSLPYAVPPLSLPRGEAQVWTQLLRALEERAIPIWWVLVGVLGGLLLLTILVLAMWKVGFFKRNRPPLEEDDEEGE
T1 sequence (P05106 27-788 limits assumed): as the sequence (P05106 27-788 limits assumed) above
T1 sequence (P06756 31-889 limits assumed): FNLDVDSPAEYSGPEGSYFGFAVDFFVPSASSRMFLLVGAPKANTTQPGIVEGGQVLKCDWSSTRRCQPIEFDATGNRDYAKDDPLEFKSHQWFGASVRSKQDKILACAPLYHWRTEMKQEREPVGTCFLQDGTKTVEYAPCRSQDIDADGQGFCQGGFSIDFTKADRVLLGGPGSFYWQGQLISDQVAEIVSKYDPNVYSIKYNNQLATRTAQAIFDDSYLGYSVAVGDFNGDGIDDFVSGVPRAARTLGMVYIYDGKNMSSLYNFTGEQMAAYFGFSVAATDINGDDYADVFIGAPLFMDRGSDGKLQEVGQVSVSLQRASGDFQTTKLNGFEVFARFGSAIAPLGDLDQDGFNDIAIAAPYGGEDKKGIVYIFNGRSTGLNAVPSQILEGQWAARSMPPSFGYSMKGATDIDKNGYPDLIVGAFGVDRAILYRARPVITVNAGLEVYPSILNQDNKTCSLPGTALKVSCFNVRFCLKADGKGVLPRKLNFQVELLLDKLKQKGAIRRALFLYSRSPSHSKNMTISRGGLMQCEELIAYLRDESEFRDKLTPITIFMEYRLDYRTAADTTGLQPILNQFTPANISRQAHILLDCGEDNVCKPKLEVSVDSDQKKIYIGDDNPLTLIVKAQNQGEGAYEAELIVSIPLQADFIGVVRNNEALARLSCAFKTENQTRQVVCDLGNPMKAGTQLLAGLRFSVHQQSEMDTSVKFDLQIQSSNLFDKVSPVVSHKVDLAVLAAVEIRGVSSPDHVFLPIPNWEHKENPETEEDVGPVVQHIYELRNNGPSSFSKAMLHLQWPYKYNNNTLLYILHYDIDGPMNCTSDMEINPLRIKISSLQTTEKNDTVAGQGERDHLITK
T1 sequence (P06756 891-1048 limits assumed): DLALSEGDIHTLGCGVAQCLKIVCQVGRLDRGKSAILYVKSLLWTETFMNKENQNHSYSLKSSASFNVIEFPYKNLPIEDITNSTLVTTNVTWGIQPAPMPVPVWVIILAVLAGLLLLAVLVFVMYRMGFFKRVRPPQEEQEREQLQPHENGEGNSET

SMILES | IC50 (Integrin alpha-V/beta-3 [1]) | IC50 [2] | IC50 [3] [µM] | IC50 (Integrin alpha-V/beta-3 [4]) [µM]
CC(C)[C@@H]1NC(=O)CNC(=O)C[C@@H]2O[C@H](CNC(=O)[C@H](CCCN=C(N)N)NC(=O)[C@H](CC(=O)O)NC1=O)[C@@H](O)[C@H]2O (cyclo(DR[X1]GV)) | Not Active | Not Active | – | –
N=C(N)NCCC[C@@H]1NC(=O)C[C@@H]2O[C@H](CNC(=O)[C@H](CC(=O)O)NC(=O)CNC1=O)[C@@H](O)[C@H]2O | – | – | 0.384 | 1.49
CC(C)[C@@H]1NC(=O)[C@H](CC(=O)O)NC(=O)CNC(=O)[C@H](CCCN=C(N)N)NC(=O)C[C@@H]2O[C@H](CNC1=O)[C@@H](O)[C@H]2O (cyclo(RGDV[X1])) | – | – | 32.2 | 98.1
N=C(N)NCCCC1NC(=O)C[C@@H]2O[C@H](CNC(=O)C(CC(=O)O)NC(=O)C[C@@H]3O[C@H](CNC1=O)[C@@H](O)[C@H]3O)[C@@H](O)[C@H]2O (stereo not given in full) | Not Active | Not Active | – | –
N=C(N)NCCCC1NC(=O)C[C@@H]2O[C@H](CNC(=O)C[C@@H]3O[C@H](CNC(=O)C(CC(=O)O)NC(=O)CNC1=O)[C@@H](O)[C@H]3O)[C@@H](O)[C@H]2O (stereo not given in full) | – | – | 198 | 597
